Data as given in publication PMC6120666 (The EMBO Journal, 2018).

Tests used:
GST-BIR2-XIAP [1] = target: T1, GST-BIR2-XIAP (Homo sapiens, UniProt P98170, D214S); test: SPOT peptide assay; format: binding; conditions: D214S mutant BIR2
T1 construct: XIAP BIR2 domain (aa 124-242) into pGTVL2 vector in frame with N-terminal HIS and GST tags; made in house; host or cells: E. coli (BL21)
Experimental: (§1) Cellulose‐bound peptide arrays were prepared employing standard Fmoc solid‐phase peptide synthesis using a MultiPep‐RSi‐Spotter (INTAVIS, Köln, Germany) as previously described (Picaud & Filippakopoulos, 2015). The assay was performed using recombinant 6xHIS‐GST‐BIR2 domain of XIAP protein, and bound protein was detected using anti‐His antibody HRP‐conjugated.
(§2) For coimmunoprecipitation of HA-XIAP with RIPK2, transfected and treated cells were lysed in TBS buffer containing 0.5% NP-40, cOmplete and PhosSTOP inhibitors (Roche) and the lysate was cleared by centrifugation. The lysates were incubated with anti-HA-agarose overnight, washed 3x with lysis buffer and analyzed by immunoblotting. […]
(§3) Cleared lysates were pretreated with kinase inhibitors or DMSO and incubated with GST-XIAP-BIR2 bound to Glutathione Sepharose at 4 °C overnight. Bound material was washed 3x with lysis buffer or PBS, eluted with 15 mM Glutathione in PBS and analyzed by immunoblotting. […] The bound material was eluted and analyzed as described above.
(§4) Ubiquitin conjugates were purified from treated cells using GST-1xUBAubq ubiquitin affinity reagent and analyzed by immunoblotting as described (Fiil et al., 2013). […]
(§5) Proteins bound to peptides were detected using anti-His antibody HPR conjugated (diluted 1:15000) and the Pierce® ECL Western blotting Substrate (#32106, Thermo Fisher Scientific). […]

GST-BIR2-XIAP [2] = target: T2, GST-BIR2-XIAP (Homo sapiens, UniProt P98170); test: SPOT peptide assay; format: binding; conditions: GST-tagged WT BIR2
T2 construct: XIAP BIR2 domain (aa 124-242) into pGTVL2 vector in frame with N-terminal HIS and GST tags; made in house; host or cells: E. coli (BL21)
Experimental: as §1, §2, §3, §4, §5

U2OS/NOD2 cells = test: Intracellular flow cytometry of CXCL8 after L18-MDP; format: cell-based, human; conditions: U2OS/NOD2 RIPK2 KO cells reconstituted with T95W gatekeeper mutant; L18-MDP 200 ng/ml, 4 h
Experimental: Purified material and lysates were analyzed by immunoblotting. […] Numbering below schematic refers to amino acid residues in human RIPK2 and indicate domain boundaries. […] Data information: Data in (A, B, D, H) represent the mean ± SEM of 2–4 independent experiments, each performed in duplicate. […] Two‐way ANOVA was used to determine statistical significance. See also Fig EV1.Source data are available online for this figure.
Dark gray represents areas occupied by RIPK2; white areas indicate empty spaces in CSLP binding pocket. […] Dotted black box indicates region shown for models with CSLP37 and CSLP43. • Molecular docking model of RIPK2 kinase domain in complex with CSLP43 (green) based on RIPK2/CSLP18 structure from (D). […] Two‐way ANOVA was used to determine statistical significance. See also Fig EV2.
(§6) GST-BIR2-XIAP as indicated. Intensity quantification of SPOTs was performed using ImageJ software
(§7) Dual luciferase reporter assay
(§8) Intracellular flow cytometry of CXCL8
(§9) for cell death) or vehicle for 24h. Viability was determined using the CellTiter-Glo® luminescent cell
(§10) together with Transfection Carrier DNA (Promega).
(§11) After addition of Nano-Glo

[3] = system: RIPK2 ubiquitination in U2OS/NOD2 and THP-1 cells; test: Purification of Ub-conjugates (TUBE pulldown), RIPK2 ubiquitination; format: cell-based, human
Experimental: (§12) For co‐immunoprecipitation of HA‐XIAP with RIPK2, transfected and treated cells were lysed in TBS buffer containing 0.5% NP‐40, cOmplete and PhosSTOP inhibitors (Roche) and the lysate was cleared by centrifugation. The lysates were incubated with anti‐HA‐agarose overnight, washed 3× with lysis buffer, and analyzed by immunoblotting. For GST pulldown experiments, U2OS/NOD2 cells were lysed in TBS lysis buffer containing 0.5% NP‐40, cOmplete and PhosSTOP inhibitors (Roche). Cleared lysates were pretreated with kinase inhibitors or DMSO and incubated with GST‐XIAP‐BIR2 bound to Glutathione Sepharose at 4°C overnight. Bound material was washed 3× with lysis buffer or PBS, eluted with 15 mM Glutathione in PBS, and analyzed by immunoblotting. […] The bound material was eluted and analyzed as described above. […]
PBS, eluted with 15 mM Glutathione in PBS and analyzed by immunoblotting. […]

[4] = target: T3, NanoLuc-RIPK2 WT and T95W (Homo sapiens, UniProt O43353, T95W); test: nanoBRET assay in HEK293 cells with SGC-590001 probe; format: binding; conditions: up to more than 100 nM
T3 construct: expressed in transfected cells; host or cells: HEK293 cells
Experimental: Purified material and lysates were analyzed by immunoblotting. […] Two‐way ANOVA was used to determine statistical significance.
as §6, §7, §8, §9, §10, §11

[5] = target: T4, XIAP BIR2 - RIPK2 interaction (Homo sapiens, UniProt O43353); test: GST-BIR2-XIAP pulldown of RIPK2; format: binding; conditions: U2OS/NOD2 lysates; inhibitors at 100-fold IC50 of RIPK2 kinase activity
T4 construct: U2OS/NOD2 cells were lysed in TBS lysis buffer; endogenous in cells; host or cells: U2OS/NOD2 cell lysate (RIPK2); E. coli BL21 (GST-BIR2-XIAP)
Experimental: For co‐immunoprecipitation of HA‐XIAP with RIPK2, transfected and treated cells were lysed in TBS buffer containing 0.5% NP‐40, cOmplete and PhosSTOP inhibitors (Roche) and the lysate was cleared by centrifugation. The lysates were incubated with anti‐HA‐agarose overnight, washed 3× with lysis buffer, and analyzed by immunoblotting. For GST pulldown experiments, U2OS/NOD2 cells were lysed in TBS lysis buffer containing 0.5% NP‐40, cOmplete and PhosSTOP inhibitors (Roche). Cleared lysates were pretreated with kinase inhibitors or DMSO and incubated with GST‐XIAP‐BIR2 bound to Glutathione Sepharose at 4°C overnight. Bound material was washed 3× with lysis buffer or PBS, eluted with 15 mM Glutathione in PBS, and analyzed by immunoblotting. […] The bound material was eluted and analyzed as described above.
For coimmunoprecipitation of HA-XIAP with RIPK2, transfected and treated cells were lysed in TBS buffer containing 0.5% NP-40, cOmplete and PhosSTOP inhibitors (Roche) and the lysate was cleared by centrifugation. The lysates were incubated with anti-HA-agarose overnight, washed 3x with lysis buffer and analyzed by immunoblotting. For GST pull-down experiments, U2OS/NOD2 were lysed in TBS lysis buffer containing 0.5% NP-40, cOmplete and PhosSTOP inhibitors (Roche).
Cleared lysates were pretreated with kinase inhibitors or DMSO and incubated with GST-XIAP-BIR2 bound to Glutathione Sepharose at 4 °C overnight. Bound material was washed 3x with lysis buffer or PBS, eluted with 15 mM Glutathione in PBS and analyzed by immunoblotting. In pull-down […]
inhibitors or DMSO control in PBS were added together with RIPK2 kinase domain to GST-XIAP-BIR2 bound to Glutathione Sepharose. The bound material was eluted and analyzed as described above. […]

[6] = target: T5, XIAP-RIPK2 interaction in HEK293FT cells (Homo sapiens, UniProt O43353); test: Co-immunoprecipitation of HA-XIAP with endogenous RIPK2; format: cell-based; conditions: 200 nM
T5 construct: endogenous RIPK2 from HEK293FT cells; endogenous in cells; host or cells: HEK293FT cells (RIPK2 endogenous; 3xHA-XIAP-F495A transfected)
Experimental: Purified material and lysates were analyzed by immunoblotting. • Pulldown of RIPK2 from U2OS/NOD2 cell lysates with recombinant GST‐BIR2‐XIAP in the presence of CSLP inhibitors. […] Purified material and lysates were analyzed by immunoblotting. • Pulldown of recombinant RIPK2 kinase domain (dephosphorylated) with recombinant GST‐BIR2‐XIAP in the presence of CSLP inhibitors as indicated. Inhibitors were used at the same concentrations as in (C). Purified material and lysates were analyzed by immunoblotting. • Purification of Ub‐conjugates from THP‐1 cells after treatment with L18‐MDP (200 ng/ml, 1 h) and CSLP inhibitors as indicated. Purified material and lysates were analyzed by immunoblotting. […]
as §12, with “For GST pulldown experiments, U2OS/NOD2 cells were lysed in TBS lysis buffer containing 0.5% NP‐40, cOmplete and PhosSTOP inhibitors (Roche). Cleared lysates were pretreated with kinase inhibitors or DMSO and incubated with GST‐XIAP‐BIR2 bound to Glutathione Sepharose at 4°C overnight.” left out
as §4

Row | Compound | binding of D214S versus WT BIR2 domain to peptide (GST-BIR2-XIAP [1]) | binding of WT XIAP BIR2 domain to peptide (GST-BIR2-XIAP [2]) | inhibition of NOD2 signaling (CXCL8) in cells expressing RIPK2 T95W (U2OS/NOD2 cells) | ubiquitination of kinase-dead RIPK2 variants after NOD2 stimulation ([3]; U2OS/NOD2 RIPK2 KO cells reconstituted with K47R or D146N) | RIPK2 ubiquitination after L18-MDP ([3]; U2OS/NOD2 or THP-1 cells, L18-MDP 200 ng/ml, 1 h) | binding to RIPK2 T95W in cells [4] | pulldown of RIPK2 by GST-BIR2-XIAP from cell lysates [5] | co-immunoprecipitation of endogenous RIPK2 with HA-XIAP [6]
1 | A-S-G-T-V-S-S-A-R-H-A-D-W-R-V (ASGTVSSARHADWRV) [A13, RIPK2 15-mer SPOT peptide, residues 28-42] | reduced | binds predominantly |  |  |  |  |  | 
2 | Cc1ccc(C(=O)Nc2ccc(CN3CCN(C)CC3)c(C(F)(F)F)c2)cc1C#Cc1cnc2cccnn12 [ponatinib, reference compound] |  |  | largely abolished the inhibitory effect | prevented ubiquitination | antagonized | ablated the binding | interfered | prevented
